Measurements from PMC8297783, “Autocrine signaling by receptor tyrosine kinases in urothelial carcinoma of the bladder” (PLoS ONE, 2021).
“And” between values parts separate entries of the source, which are not always exact repeats. Equal values may be shown once. Read-outs that look alike come from different tables or passages of the source.

Assays:
MERTK = biological target: T1, MERTK (Homo sapiens, UniProt Q12866); assay: phospho-MERTK immunoblot of J82 and MDXC1 lysates; type: cell-based; conditions: J82 and MDXC1 cells
T1 construct: endogenous in cells; host or cells: J82 and MDXC1 (J82 xenograft explant)
T1 sequence (Q12866 21-999): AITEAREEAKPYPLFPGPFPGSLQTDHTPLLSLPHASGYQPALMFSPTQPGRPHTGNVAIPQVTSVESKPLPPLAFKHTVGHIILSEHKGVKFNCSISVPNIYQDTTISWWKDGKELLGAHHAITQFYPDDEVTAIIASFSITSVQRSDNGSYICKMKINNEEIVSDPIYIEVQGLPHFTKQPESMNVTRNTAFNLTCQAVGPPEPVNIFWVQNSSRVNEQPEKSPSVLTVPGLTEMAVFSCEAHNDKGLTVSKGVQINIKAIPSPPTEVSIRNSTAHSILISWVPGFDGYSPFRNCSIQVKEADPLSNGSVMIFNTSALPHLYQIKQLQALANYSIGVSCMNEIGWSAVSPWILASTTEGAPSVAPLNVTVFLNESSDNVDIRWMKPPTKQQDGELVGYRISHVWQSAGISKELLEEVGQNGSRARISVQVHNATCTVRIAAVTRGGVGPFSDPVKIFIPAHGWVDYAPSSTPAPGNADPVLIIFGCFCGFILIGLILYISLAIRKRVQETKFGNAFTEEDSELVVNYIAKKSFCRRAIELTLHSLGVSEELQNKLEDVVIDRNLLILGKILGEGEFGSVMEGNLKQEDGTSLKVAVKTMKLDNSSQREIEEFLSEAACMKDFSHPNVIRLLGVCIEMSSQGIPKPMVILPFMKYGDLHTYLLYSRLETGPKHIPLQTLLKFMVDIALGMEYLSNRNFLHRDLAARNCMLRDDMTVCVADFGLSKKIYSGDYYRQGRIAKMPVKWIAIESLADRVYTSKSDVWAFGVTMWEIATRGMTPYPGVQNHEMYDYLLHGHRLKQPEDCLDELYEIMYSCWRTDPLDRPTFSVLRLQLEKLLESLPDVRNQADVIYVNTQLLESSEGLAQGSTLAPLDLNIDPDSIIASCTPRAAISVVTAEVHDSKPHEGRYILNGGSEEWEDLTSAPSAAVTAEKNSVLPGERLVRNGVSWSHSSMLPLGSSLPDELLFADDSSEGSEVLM
Method: For SDS-PAGE and immunoblot analysis, cultured cells were washed with cold PBS, extracted in Laemmli sample buffer, sonicated in ice-cold water with 3 cycles of 15 sec sonication followed by 1 min of cooling time. Samples were then heated for 5 min at 95°C prior to SDS-PAGE and electrophoretic transfer to nitrocellulose or PVDF membrane. Membranes were processed as described previously: membranes were blocked with 5% milk in Tris buffered saline, 0.1% Tween 20 (TBST) for 1 h at 25°C before incubating with primary antibody (1:1000 dilution) in TBST-5% milk for 16 h at 4°C. Membranes were then washed 3 times with TBST, incubated with horse radish peroxidase-labeled secondary antibody (1:10,000 dilution) for 1 h at 25°C, and washed for 3 h with TBS prior to ECL detection (Pierce/Thermo Fisher Scientific) according to the manufacturer’s supplied protocol. Imaging and quantitation of ECL light emission was performed using an Azure Biosystems c600 imaging system (Dublin, California USA).
Fig 8 Serial passage of J82 cell xenografts in mice. (A) Tumor volume (mm^3) of individual J82 (left) or MDXC1 (middle) cell xenografts in mice, or mean (+/- SD) tumor growth of both cell line xenografts (right), vs. days post implantation.

J82 cells [1] = assay: cell proliferation assay, J82 cells; type: cell-based, Human; conditions: 1% FBS, 6 d
Erk [2] = assay: Erk kinase activation (pErk/tErk) by 2-site immunoassay in J82 cells; type: cell-based, Human; conditions: serum-deprived J82 cells
J82 cells [3] = assay: anchorage independent growth assay, J82 cells; conditions: 1% FBS, cabozantinib 300 nM, with or without Gas6 5.7 nM
IGF1R = IGF1R (Homo sapiens, UniProt P08069); assay: cell-free kinase inhibition assay, cabozantinib dose-dependence; type: biochemical
NTRK3 = NTRK3 (Homo sapiens, UniProt Q16288); assay: as above; type: biochemical; conditions: minimum of 3 x 10-dose curves
FGFR1 = FGFR1 (Homo sapiens, UniProt P11362); assay: as above; type: biochemical
J82 cells [4] = assay: Transwell cell migration assay, J82 cells; conditions: serum deprived J82 cells, 16 h, 37°C, Gas6 5.7 nM, cabozantinib 300 nM
DDR1 = DDR1 (Homo sapiens, UniProt Q08345); assay: cell-free kinase inhibition assay, cabozantinib dose-dependence; type: biochemical; conditions: minimum of 3 x 10-dose curves
FL3 cells [5] = assay: cell proliferation assay, FL3 cells; type: cell-based, Human; conditions: 1% FBS, 6 d
CSF1R [6] = biological target: T2, CSF1R (Homo sapiens, UniProt P07333); design: method as in PMID 30075184; conditions: intact cells; cited from earlier work
Erk [7] = assay: Erk kinase activation (pErk/tErk) in FL3 cells, MST1R and CSF1R pathways; type: cell-based, Human; conditions: MST1 or CSF1, cabozantinib
FGFR4 = FGFR4 (Homo sapiens, UniProt P22455); assay: cell-free kinase inhibition assay, cabozantinib dose-dependence; type: biochemical
Akt [8] = assay: Akt kinase activation (pAkt/tAkt) in FL3 cells, MST1R and CSF1R pathways; type: cell-based, Human; conditions: serum-deprived FL3 cells, MST1 (5 nM) or CSF1 (10 nM), cabozantinib 300 nM
Axl = biological target: T3, Axl (Homo sapiens, UniProt P30530); assay: Axl kinase activation (pAxl/tAxl) by 2-site immunoassay in J82 cells; type: cell-based; conditions: serum-deprived J82 cells, Gas6 5.7 nM 1 h at 37°C, added cabozantinib 300 nM, relative to untreated cells
T3 construct: endogenous in cells; host or cells: J82 (ATCC HTB-1)

FGFR2 = FGFR2 (Homo sapiens, UniProt P21802); assay: cell-free kinase inhibition assay, cabozantinib dose-dependence; type: biochemical; conditions: minimum of 3 x 10-dose curves
FL3 cells [9] = assay: Transwell cell migration assay, FL3 cells; conditions: serum deprived FL3 cells, 16 h, 37°C, cabozantinib 300 nM
DDR2 = DDR2 (Homo sapiens, UniProt Q16832); assay: cell-free kinase inhibition assay, cabozantinib dose-dependence; type: biochemical; conditions: minimum of 3 x 10-dose curves
TEK = conditions: in vitro; read-out: IC50, TEK inhibition in vitro; cited from earlier work
FLT4 = FLT4 (Homo sapiens, UniProt P35916); assay: cell-free kinase inhibition assay, cabozantinib dose-dependence; type: biochemical; conditions: minimum of 3 x 10-dose curves
MUSK = MUSK (Homo sapiens, UniProt O15146); assay: as above; type: biochemical
PDGFRA = PDGFRA (Homo sapiens, UniProt P16234); assay: as above; type: biochemical; conditions: minimum of 3 x 10-dose curves
NTRK1 = NTRK1 (Homo sapiens, UniProt P04629); assay: as above; type: biochemical; conditions: minimum of 3 x 10-dose curves
5637 cells = assay: cell proliferation assay, 5637 cells; type: cell-based, Human; conditions: 1% FBS, 6 d
CSF1R [10] = biological target: T2, CSF1R; assay: cell-free kinase inhibition assay, cabozantinib dose-dependence; type: biochemical; conditions: minimum of 3 x 10-dose curves
FL3 cells [11] = assay: anchorage independent growth assay, FL3 cells; conditions: 1% FBS, cabozantinib 300 nM, with or without MST1 5 nM or CSF1 10 nM
advanced BCa = conditions: clinical trial of cabozantinib in advanced BCa patients; cited from earlier work
Akt [12] = assay: Akt kinase activation (pAkt/tAkt) by 2-site immunoassay in J82 cells; type: cell-based, Human; conditions: serum-deprived J82 cells
ALK = ALK (Homo sapiens, UniProt Q9UM73); assay: cell-free kinase inhibition assay, cabozantinib dose-dependence
ROS = ROS (Homo sapiens, UniProt P08922); assay: as above; type: biochemical; conditions: minimum of 3 x 10-dose curves
TYRO3 = TYRO3 (Homo sapiens, UniProt Q06418); assay: as above; type: biochemical; conditions: minimum of 3 x 10-dose curves
NTRK2 = NTRK2 (Homo sapiens, UniProt Q16620); assay: as above; type: biochemical
FGFR3 = FGFR3 (Homo sapiens, UniProt P22607); assay: as above; type: biochemical
[13] = cabozantinib 300 nM, in the presence or absence of added Gas6 (5.7 nM)
[14] = Gas6 5.7 nM 1 h, cabozantinib 300 nM
[15] = exogenous Gas6 5.7 nM, 1 h at 37°C

Chain of FLT4 (P35916 25-1363): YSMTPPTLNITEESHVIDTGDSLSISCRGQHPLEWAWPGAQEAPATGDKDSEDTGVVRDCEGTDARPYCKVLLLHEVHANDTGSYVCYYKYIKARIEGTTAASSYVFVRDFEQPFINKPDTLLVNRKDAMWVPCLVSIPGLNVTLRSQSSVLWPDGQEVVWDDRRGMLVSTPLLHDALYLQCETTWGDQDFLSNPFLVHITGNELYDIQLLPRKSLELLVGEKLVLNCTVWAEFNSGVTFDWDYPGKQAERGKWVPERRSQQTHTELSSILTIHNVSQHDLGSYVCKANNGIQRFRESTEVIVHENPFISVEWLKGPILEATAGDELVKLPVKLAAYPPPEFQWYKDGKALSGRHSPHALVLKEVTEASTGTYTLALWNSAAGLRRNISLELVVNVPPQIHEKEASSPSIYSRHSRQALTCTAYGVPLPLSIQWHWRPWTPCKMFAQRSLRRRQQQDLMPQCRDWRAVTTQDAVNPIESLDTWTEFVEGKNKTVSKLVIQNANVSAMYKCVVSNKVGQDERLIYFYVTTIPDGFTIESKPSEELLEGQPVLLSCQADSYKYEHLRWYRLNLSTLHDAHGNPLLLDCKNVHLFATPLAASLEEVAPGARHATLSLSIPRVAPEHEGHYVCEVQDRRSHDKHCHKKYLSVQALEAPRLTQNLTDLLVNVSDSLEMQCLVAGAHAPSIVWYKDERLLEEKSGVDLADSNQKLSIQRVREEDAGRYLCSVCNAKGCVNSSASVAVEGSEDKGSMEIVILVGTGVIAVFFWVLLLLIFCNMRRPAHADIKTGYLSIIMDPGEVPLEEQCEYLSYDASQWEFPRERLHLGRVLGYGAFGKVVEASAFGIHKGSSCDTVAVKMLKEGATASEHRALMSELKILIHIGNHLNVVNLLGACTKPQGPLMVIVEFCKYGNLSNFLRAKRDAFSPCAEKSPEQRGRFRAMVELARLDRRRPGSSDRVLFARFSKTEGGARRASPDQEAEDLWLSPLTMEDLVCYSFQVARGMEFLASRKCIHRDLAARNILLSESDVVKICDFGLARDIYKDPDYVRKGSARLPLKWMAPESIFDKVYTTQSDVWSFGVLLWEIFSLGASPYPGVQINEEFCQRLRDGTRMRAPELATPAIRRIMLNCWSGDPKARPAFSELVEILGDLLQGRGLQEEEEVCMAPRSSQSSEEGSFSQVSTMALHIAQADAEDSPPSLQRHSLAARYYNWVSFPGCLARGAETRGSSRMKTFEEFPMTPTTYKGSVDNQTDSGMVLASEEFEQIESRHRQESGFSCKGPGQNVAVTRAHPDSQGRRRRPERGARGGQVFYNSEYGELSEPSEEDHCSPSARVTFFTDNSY
Chain of TYRO3 (Q06418 41-890): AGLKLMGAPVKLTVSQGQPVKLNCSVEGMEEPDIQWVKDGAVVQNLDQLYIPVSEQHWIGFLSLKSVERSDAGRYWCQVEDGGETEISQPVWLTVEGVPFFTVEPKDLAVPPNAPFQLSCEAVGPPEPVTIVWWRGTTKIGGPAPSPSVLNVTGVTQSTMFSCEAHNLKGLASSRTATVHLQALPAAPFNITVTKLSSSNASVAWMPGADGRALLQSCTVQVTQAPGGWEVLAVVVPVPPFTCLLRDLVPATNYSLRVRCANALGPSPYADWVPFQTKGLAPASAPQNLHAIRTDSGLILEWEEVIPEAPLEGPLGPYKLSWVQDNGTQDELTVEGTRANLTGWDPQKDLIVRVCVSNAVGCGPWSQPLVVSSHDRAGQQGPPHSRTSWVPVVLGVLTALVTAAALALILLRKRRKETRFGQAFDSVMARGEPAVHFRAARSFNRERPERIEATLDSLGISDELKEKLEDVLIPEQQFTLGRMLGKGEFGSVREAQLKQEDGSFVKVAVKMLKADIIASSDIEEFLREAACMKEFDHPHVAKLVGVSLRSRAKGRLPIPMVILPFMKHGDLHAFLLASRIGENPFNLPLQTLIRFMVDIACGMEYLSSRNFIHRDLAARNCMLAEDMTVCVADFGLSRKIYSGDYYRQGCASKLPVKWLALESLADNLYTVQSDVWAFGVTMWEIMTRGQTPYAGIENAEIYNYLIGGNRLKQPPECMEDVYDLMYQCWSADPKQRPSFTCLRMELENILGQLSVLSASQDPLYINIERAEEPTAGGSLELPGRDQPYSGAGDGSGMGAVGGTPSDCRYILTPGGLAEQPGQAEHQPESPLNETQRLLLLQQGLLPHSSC
Chain of ROS (P08922 28-2347): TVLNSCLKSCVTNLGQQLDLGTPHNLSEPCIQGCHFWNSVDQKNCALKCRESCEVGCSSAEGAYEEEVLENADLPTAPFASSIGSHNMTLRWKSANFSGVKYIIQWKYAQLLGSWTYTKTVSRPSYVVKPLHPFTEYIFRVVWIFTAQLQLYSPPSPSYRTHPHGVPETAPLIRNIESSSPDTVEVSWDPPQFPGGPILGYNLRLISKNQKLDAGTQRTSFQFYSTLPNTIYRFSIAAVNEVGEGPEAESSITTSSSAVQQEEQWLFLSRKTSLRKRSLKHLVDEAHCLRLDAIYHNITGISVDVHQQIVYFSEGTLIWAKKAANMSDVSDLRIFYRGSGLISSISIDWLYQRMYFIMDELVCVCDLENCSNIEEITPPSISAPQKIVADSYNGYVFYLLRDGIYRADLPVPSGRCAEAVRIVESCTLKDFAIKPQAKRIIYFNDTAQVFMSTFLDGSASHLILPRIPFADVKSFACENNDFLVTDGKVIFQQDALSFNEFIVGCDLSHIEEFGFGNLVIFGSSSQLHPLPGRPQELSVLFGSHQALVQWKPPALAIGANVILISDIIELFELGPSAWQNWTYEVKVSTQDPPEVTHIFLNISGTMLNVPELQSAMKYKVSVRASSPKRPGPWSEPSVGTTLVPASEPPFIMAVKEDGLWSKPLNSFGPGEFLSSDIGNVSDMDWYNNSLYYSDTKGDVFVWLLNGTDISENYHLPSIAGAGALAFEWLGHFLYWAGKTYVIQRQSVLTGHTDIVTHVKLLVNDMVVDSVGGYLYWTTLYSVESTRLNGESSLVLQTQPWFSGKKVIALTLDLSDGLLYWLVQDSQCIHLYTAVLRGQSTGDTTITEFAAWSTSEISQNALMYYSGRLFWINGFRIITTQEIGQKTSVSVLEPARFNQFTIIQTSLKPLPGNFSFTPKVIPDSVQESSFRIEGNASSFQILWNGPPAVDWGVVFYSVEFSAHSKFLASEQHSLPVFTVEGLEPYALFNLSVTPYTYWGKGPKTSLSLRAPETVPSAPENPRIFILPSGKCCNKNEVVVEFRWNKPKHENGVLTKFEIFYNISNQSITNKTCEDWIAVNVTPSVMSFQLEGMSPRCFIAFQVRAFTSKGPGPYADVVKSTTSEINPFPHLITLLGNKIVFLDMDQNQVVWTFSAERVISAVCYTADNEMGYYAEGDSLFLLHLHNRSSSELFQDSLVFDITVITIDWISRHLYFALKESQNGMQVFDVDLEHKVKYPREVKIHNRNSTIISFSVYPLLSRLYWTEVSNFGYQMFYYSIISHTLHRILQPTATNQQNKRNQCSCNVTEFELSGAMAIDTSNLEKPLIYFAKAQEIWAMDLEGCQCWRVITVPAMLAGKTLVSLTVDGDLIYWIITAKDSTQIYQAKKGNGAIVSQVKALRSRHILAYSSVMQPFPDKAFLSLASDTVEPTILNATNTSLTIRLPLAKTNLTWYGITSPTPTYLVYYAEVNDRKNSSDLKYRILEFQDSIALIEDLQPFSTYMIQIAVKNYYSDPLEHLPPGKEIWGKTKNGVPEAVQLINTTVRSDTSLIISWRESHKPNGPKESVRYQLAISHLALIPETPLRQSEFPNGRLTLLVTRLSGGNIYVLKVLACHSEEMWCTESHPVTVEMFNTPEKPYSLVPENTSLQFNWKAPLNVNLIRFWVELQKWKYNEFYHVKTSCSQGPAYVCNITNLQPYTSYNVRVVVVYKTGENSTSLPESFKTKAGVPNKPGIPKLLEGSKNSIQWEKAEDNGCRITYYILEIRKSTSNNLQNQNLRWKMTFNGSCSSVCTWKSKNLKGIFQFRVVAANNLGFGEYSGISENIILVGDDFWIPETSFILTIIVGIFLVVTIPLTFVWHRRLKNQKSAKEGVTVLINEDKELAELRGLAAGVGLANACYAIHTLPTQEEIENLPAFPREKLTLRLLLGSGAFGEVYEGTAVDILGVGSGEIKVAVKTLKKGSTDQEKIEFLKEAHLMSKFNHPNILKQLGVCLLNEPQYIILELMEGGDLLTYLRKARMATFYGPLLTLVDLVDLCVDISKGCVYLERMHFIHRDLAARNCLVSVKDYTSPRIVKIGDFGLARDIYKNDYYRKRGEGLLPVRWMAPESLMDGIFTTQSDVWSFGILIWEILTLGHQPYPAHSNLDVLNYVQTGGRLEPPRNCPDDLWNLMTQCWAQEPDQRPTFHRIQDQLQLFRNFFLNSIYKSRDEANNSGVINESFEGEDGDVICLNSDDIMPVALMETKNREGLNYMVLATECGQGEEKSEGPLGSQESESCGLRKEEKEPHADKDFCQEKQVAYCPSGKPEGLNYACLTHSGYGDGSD

For `CN1CCN(Cc2ccc(Nc3ncc(Cl)c(Nc4ccccc4S(=O)(=O)N(C)C)n3)cc2)CC1` [TP0903], the phospho-MERTK content (MERTK; TP0903 300 nM) was “reduced phospho-MERTK content below that of untreated serum-deprived cells”.

In the case of `COc1cc2nccc(Oc3ccc(NC(=O)C4(C(=O)Nc5ccc(F)cc5)CC4)cc3)c2cc1OC` [cabozantinib], the proliferation (J82 cells [1]; [13]) is reported as “significantly inhibited proliferation by these lines below the rate of untreated cells”, the “Erk kinase activation (pErk/tErk)” value (Erk [2]; [14]) is reported as “suppression below baseline” and the anchorage independent growth (J82 cells [3]) is reported as “inhibited”. For the same compound, the IC50 (IGF1R) was greater than 3000 nM, the IC50 (NTRK3) was less than 150 nM and the IC50 (FGFR1) was greater than 3000 nM. For the same compound, the Gas6-induced migration (J82 cells [4]) was “repressed”, the IC50 (DDR1) was less than 150 nM and the proliferation (FL3 cells [5]; both cabozantinib 300 nM and MST1 5 nM) was “reduced FL3 proliferation to the control cell growth rate, but not below”. The proliferation rate (FL3 cells [5]; cabozantinib alone 300 nM, relative to untreated cells) was “significantly reduced proliferation rate”, the “inhibition of CSF1R activation” value (CSF1R [6]) was “complete inhibition” and the “Erk kinase activation (pErk/tErk)” value (Erk [7]) was “suppressed significantly below baseline”. The IC50 (FGFR4) was greater than 3000 nM, the “Akt kinase activation (pAkt/tAkt)” value (Akt [8]) was “suppressed significantly below baseline” and the “Axl kinase activation (pAxl/tAxl)” value (Axl) was “suppressed significantly below control levels”. For the same compound, the IC50 (FGFR2) was greater than 3000 nM, the CSF1-induced migration (FL3 cells [9]; CSF1 10 nM) was “repressed” and the MST1-induced migration (FL3 cells [9]; MST1 5 nM) was “repressed”. For the same compound, the IC50 (DDR2) was less than 150 nM, the IC50 (TEK) was 14 nM and the IC50 (FLT4) was 24 nM and < 50 nM. It also gave an IC50 (MUSK) greater than 3000 nM, an IC50 (PDGFRA) of 414 nM and an IC50 (NTRK1) of 11 nM. The proliferation (5637 cells; [13]) was “significantly inhibited proliferation by these lines below the rate of untreated cells”, the IC50 (CSF1R [10]) was 14 nM and the anchorage independent growth (FL3 cells [11]) was “inhibited”. The overall response rate (advanced BCa) was 33%, the “Akt kinase activation (pAkt/tAkt)” value (Akt [12]; [14]) was “suppression below baseline” and the IC50 (ALK) was greater than 3000 nM. For the same compound, the IC50 (ROS) was 43 nM and < 50 nM, the IC50 (TYRO3) was < 50 nM and 3 nM and the IC50 (NTRK2) was less than 50 nM. The IC50 (NTRK2; IC50 (NTRK2), cell-free assay, minimum of 3 x 10-dose curves) was 15 nM and the IC50 (FGFR3) was greater than 3000 nM.

With “Gas6: exogenous ligand of AXL (also activates MERTK), added to cells at 5.7 nM” the proliferation rate (J82 cells [1]; exogenously added Gas6 5.7 nM) was “significantly increased”, the “Erk kinase activation (pErk/tErk)” value (Erk [2]; [15]) was “significant exogenous Gas6-induced activation” and the MERTK autophosphorylation (MERTK; exogenous Gas6 5.7 nM) was “stimulated robust MERTK autophosphorylation”. For the same compound, the proliferation rate (5637 cells; exogenously added Gas6 5.7 nM) was “significantly increased” and the “Akt kinase activation (pAkt/tAkt)” value (Akt [12]; [15]) was “significant exogenous Gas6-induced activation”.
